Experimental data reported in ChEMBL document CHEMBL3588817, “Discovery of 4,5,6,7-Tetrahydrobenzo[1,2-d]thiazoles as Novel DNA Gyrase Inhibitors Targeting the ATP-Binding Site” (J Med Chem, 2015).
Converted amounts (≈) assume the structure as drawn.

How the values were obtained:
[1] = system: Escherichia coli; assay: Inhibition of Escherichia coli DNA topoisomerase 4 assessed as residual enzyme activity at 100 uM using relaxed pNO1 plasmid and biotinylated oligonucelotide incubated for 30 mins by fluorescence based DNA relaxation assay
[2] = system: Escherichia coli; assay: Antibacterial activity against wild type Escherichia coli ATCC 25922 by broth microdilution method; type: functional
[3] = system: Escherichia coli; assay: Antibacterial activity against wild type Escherichia coli ATCC 25922 assessed as inhibition of microbial growth by broth microdilution method; type: functional
[4] = system: Pseudomonas aeruginosa; assay: Antibacterial activity against Pseudomonas aeruginosa ATCC 27853 assessed as inhibition of microbial growth at 50 uM by broth microdilution method; type: functional; conditions: read-out: GI
[5] = system: Enterococcus faecalis; assay: Antibacterial activity against Enterococcus faecalis ATCC 29212 assessed as inhibition of microbial growth by broth microdilution method; type: functional
[6] = target: DNA gyrase (Escherichia coli, UniProt P0AES4+P0AES6); assay: Inhibition of Escherichia coli DNA gyrase using relaxed pNO1 plasmid and biotinylated oligonucelotide incubated for 30 mins by fluorescence based DNA super-coiling assay; type: protein-complex assay
[7] = target: DNA gyrase (Staphylococcus aureus) (UniProt P0A0K8+P20831); assay: Inhibition of Staphylococcus aureus DNA gyrase assessed as residual enzyme activity at 100 uM using relaxed pNO1 plasmid and biotinylated oligonucelotide incubated for 30 mins by fluorescence based DNA super-coiling assay; type: protein-complex assay
[8] = system: Escherichia coli; assay: Antibacterial activity against wild type Escherichia coli ATCC 25922 assessed as inhibition of microbial growth at 50 uM by broth microdilution method; type: functional; conditions: read-out: GI
[9] = system: Escherichia coli; assay: Antibacterial activity against efflux deficient Escherichia coli tolC::Tn10 lacking functional tolC gene by broth microdilution method
[10] = target: Topoisomerase IV (Staphylococcus aureus) (UniProt P0C1U9+P0C1S7); assay: Inhibition of Staphylococcus aureus DNA topoisomerase 4 assessed as residual enzyme activity at 100 uM using relaxed pNO1 plasmid and biotinylated oligonucelotide incubated for 30 mins by fluorescence based DNA relaxation assay; type: protein-complex assay
[11] = system: Staphylococcus aureus; assay: Antibacterial activity against Staphylococcus aureus 25923 assessed as inhibition of microbial growth by broth microdilution method; type: functional
[12] = system: Enterococcus faecalis; assay: Antibacterial activity against Enterococcus faecalis ATCC 29212 assessed as inhibition of microbial growth at 50 uM by broth microdilution method; type: functional; conditions: read-out: GI
[13] = system: Staphylococcus aureus; assay: Antibacterial activity against Staphylococcus aureus 25923 assessed as inhibition of microbial growth at 50 uM by broth microdilution method; type: functional; conditions: read-out: GI
[14] = system: Escherichia coli; assay: Antibacterial activity against Escherichia coli imp4213::Tn10 by broth microdilution method; type: functional
[15] = system: Pseudomonas aeruginosa; assay: Antibacterial activity against Pseudomonas aeruginosa ATCC 27853 assessed as inhibition of microbial growth by broth microdilution method; type: functional

Sequence of DNA gyrase (Staphylococcus aureus) (P0A0K8 2-644 limits assumed): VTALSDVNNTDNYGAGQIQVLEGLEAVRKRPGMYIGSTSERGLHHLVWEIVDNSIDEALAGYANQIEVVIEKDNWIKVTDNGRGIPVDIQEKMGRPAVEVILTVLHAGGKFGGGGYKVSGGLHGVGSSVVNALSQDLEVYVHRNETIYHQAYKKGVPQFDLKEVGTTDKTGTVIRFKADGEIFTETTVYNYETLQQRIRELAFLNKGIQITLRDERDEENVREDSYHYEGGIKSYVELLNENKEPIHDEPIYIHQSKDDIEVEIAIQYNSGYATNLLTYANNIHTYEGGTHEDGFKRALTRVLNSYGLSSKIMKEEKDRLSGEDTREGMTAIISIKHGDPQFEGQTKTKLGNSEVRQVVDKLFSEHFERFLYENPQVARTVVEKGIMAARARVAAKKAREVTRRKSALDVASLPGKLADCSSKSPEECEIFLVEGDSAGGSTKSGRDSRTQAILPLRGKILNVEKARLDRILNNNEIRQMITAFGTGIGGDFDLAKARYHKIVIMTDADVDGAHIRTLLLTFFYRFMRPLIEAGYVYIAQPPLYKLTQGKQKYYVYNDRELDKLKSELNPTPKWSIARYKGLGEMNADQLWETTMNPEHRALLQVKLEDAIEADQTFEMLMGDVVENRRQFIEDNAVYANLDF
Sequence of DNA gyrase (Staphylococcus aureus) (P20831 whole entry partner): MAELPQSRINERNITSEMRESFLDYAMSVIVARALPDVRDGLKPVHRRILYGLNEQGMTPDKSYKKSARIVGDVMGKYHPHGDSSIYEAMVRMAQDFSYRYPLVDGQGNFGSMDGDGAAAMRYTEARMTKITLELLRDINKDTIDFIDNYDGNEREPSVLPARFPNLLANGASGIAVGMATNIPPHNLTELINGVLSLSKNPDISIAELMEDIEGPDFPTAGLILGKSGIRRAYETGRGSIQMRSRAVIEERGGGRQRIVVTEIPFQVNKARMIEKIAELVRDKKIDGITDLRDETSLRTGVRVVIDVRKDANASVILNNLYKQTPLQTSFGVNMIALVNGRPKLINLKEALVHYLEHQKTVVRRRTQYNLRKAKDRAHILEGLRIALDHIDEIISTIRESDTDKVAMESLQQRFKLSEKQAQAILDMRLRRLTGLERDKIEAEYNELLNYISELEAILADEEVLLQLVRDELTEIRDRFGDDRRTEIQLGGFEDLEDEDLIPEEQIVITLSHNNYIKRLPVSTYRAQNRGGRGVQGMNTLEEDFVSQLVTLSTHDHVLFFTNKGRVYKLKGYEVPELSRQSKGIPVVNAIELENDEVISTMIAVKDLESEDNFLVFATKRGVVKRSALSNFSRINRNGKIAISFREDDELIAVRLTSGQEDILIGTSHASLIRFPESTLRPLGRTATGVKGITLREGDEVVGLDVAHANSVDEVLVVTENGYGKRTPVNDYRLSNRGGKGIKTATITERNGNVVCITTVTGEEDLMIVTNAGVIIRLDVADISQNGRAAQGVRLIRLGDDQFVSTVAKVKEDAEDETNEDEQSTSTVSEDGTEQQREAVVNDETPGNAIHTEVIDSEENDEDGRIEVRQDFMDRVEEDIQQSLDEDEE

| SMILES | Activity [1] [%] | MIC [2] [µg/mL] | MIC [3] [µM] | inhibition of growth at 50 µM [4] [%] | MIC [5] [µM] | IC50 [6] [µM] | Activity [7] [%] | inhibition of growth at 50 µM [8] [%] | MIC [9] [µg/mL] | Activity [10] [%] | MIC [11] [µM] | inhibition of growth at 50 µM [12] [%] | inhibition of growth at 50 µM [13] [%] | MIC [14] [µg/mL] | MIC [15] [µM] |
| --- | --- | --- | --- | --- | --- | --- | --- | --- | --- | --- | --- | --- | --- | --- | --- |
| COC(=O)CC(=O)Nc1ncc2c(n1)CCC(NC(=O)c1cc(Br)c(Br)[nH]1)C2 (centres undefined) | 97 | > 256 | > 125 | < 50 | > 125 | 2.6 | 71 | < 50 | 64 (≈ 124 µM) | 98 | > 125 | < 50 | < 50 | 256 (≈ 497 µM) | > 125 |
| Nc1ncc2c(n1)CCC(NC(=O)c1cc(Br)c(Br)[nH]1)C2 (centres undefined) | 102 | > 256 | > 125 | < 50 | > 125 | 2.9 | 96 | < 50 | > 256 | 98 | > 125 | < 50 | < 50 | > 256 | > 125 |
| O=C(O)C(=O)Nc1nc2c(s1)C[C@@H](NC(=O)c1cc3ccccc3[nH]1)CC2 | 47 | > 256 | > 125 | < 50 | > 125 | 7.7 | 79 | < 50 | > 256 | 99 | > 125 | < 50 | < 50 | 128 (≈ 333 µM) | > 125 |
| Nc1nc2c(s1)C[C@H](NC(=O)c1cc(Br)c(Br)[nH]1)CC2 | 96 | > 256 | > 125 | < 50 | > 125 | 41 | 118 | < 50 | 64 (≈ 152 µM) | 92 | > 125 | < 50 | < 50 | 64 (≈ 152 µM) | > 125 |
| COC(=O)CCC(=O)Nc1nc2c(s1)C[C@@H](NC(=O)c1cc(Cl)c(Cl)[nH]1)CC2 | 100 | > 256 | > 125 | < 50 | > 125 | 0.89 | 86 | < 50 | > 256 | 93 | > 125 | < 50 | < 50 | > 256 | > 125 |
| O=C(O)CC(=O)Nc1nc2c(s1)C[C@H](NC(=O)c1cc(Br)c(Br)[nH]1)CC2 | 96 | > 256 | > 125 | < 50 | > 125 | 0.5 | 108 | < 50 | > 256 | 102 | > 125 | < 50 | < 50 | > 256 | > 125 |
| Nc1ncc2c(n1)CCC(NC(=O)c1cc(Br)c[nH]1)C2 (centres undefined) | 97 |  | > 125 | < 50 | > 125 | 35 | 100 | < 50 |  | 105 | > 125 | < 50 | < 50 |  | > 125 |
| Nc1ncc2c(n1)CCC(NC(=O)c1cc3ccccc3[nH]1)C2 (centres undefined) | 97 |  | > 125 | < 50 | > 125 | 29 | 119 | < 50 |  | 103 | > 125 | < 50 | < 50 |  | > 125 |
